In ChEMBL document CHEMBL3885881, “DrugMatrix”:

Species on record: Rattus norvegicus
Assay: DrugMatrix - Regimen: Daily Repeat
Assay type: toxicity, organism-based, Sprague-Dawley
Parameters: regimen Daily Repeat, gender Male, age 6-8 weeks
Conditions: in vivo, po, route oral GAVAGE, vehicle .5 % CMC; for ABSOLUTE BASOPHIL / ABSOLUTE EOSINOPHIL / ABSOLUTE LYMPHOCYTE / ABSOLUTE MONOCYTE / ABSOLUTE SEGMENTED NEUTROPHIL / BASOPHIL / EOSINOPHIL / ERYTHROCYTE COUNT / HEMATOCRIT / HEMOGLOBIN / LEUKOCYTE COUNT / LYMPHOCYTE / MEAN CORPUSCULAR HEMOGLOBIN / MEAN CORPUSCULAR HEMOGLOBIN CONCENTRATION / MEAN CORPUSCULAR VOLUME / MONOCYTE / NEUTROPHIL / NUCLEATED RED BLOOD CELLS / PLATELET COUNT: tissue Blood; for ALANINE AMINOTRANSFERASE / ALBUMIN / ALKALINE PHOSPHATASE / ASPARTATE AMINOTRANSFERASE / BLOOD UREA NITROGEN / CARBON DIOXIDE / CHLORIDE / CHOLESTEROL / CREATINE PHOSPHOKINASE / CREATININE / GLUCOSE / LACTATE DEHYDROGENASE / LIPASE / PHOSPHORUS / POTASSIUM / SODIUM / TOTAL BILIRUBIN / TOTAL PROTEIN / URIC ACID: tissue Plasma
[1] = 0 mg/kg, 72 h, dose level Control, time 3 day
[2] = 0 mg/kg, 120 h, dose level Control, time 5 day
[3] = 60 mg/kg, 72 h, dose level Low, time 3 day
[4] = 60 mg/kg, 120 h, dose level Low, time 5 day

CC(C)[C@H]1CC[C@H](C(=O)N[C@H](Cc2ccccc2)C(=O)O)CC1 [NATEGLINIDE]
ABSOLUTE BASOPHIL [1]: 0 CELLS/uL
ABSOLUTE EOSINOPHIL [1]: 35.67 CELLS/uL
ABSOLUTE LYMPHOCYTE [1]: 9125.17 CELLS/uL
ABSOLUTE MONOCYTE [1]: 50.17 CELLS/uL
ABSOLUTE SEGMENTED NEUTROPHIL [1]: 722.33 CELLS/uL
BASOPHIL [1]: 0%
EOSINOPHIL [1]: 0.33%
ERYTHROCYTE COUNT [1]: 5.35 x10E6/uL
HEMATOCRIT [1]: 33.58%
HEMOGLOBIN [1]: 13.35 G/DL
LEUKOCYTE COUNT [1]: 9.93 x10E3/uL
LYMPHOCYTE [1]: 91.67%
MEAN CORPUSCULAR HEMOGLOBIN [1]: 25 pg
MEAN CORPUSCULAR HEMOGLOBIN CONCENTRATION [1]: 39.8 G/DL
MEAN CORPUSCULAR VOLUME [1]: 62.77 fL
MONOCYTE [1]: 0.67%
NEUTROPHIL [1]: 7.33%
NUCLEATED RED BLOOD CELLS [1]: 0 /100WBC
PLATELET COUNT [1]: 866.17 x10E3/uL
ALANINE AMINOTRANSFERASE [1]: 57.17 u/L
ALBUMIN [1]: 4.22 G/DL
ALKALINE PHOSPHATASE [1]: 391 u/L
ASPARTATE AMINOTRANSFERASE [1]: 95.17 u/L
BLOOD UREA NITROGEN [1]: 13.67 mg/dL
CARBON DIOXIDE [1]: 30 mmol/L
CHLORIDE [1]: 102.5 MEQ/L
CHOLESTEROL [1]: 72 mg/dL
CREATINE PHOSPHOKINASE [1]: 485.67 u/L
CREATININE [1]: 0.27 mg/dL
GLUCOSE [1]: 152 mg/dL
LACTATE DEHYDROGENASE [1]: 372.67 u/L
LIPASE [1]: 9.83 u/L
PHOSPHORUS [1]: 12.47 mg/dL
POTASSIUM [1]: 6.81 MEQ/L
SODIUM [1]: 144.1 MEQ/L
TOTAL BILIRUBIN [1]: 0.23 mg/dL
TOTAL PROTEIN [1]: 5.93 G/DL
URIC ACID [1]: 1.9 mg/dL
ABSOLUTE BASOPHIL [2]: 0 CELLS/uL
ABSOLUTE EOSINOPHIL [2]: 67.33 CELLS/uL
ABSOLUTE LYMPHOCYTE [2]: 11419.17 CELLS/uL
ABSOLUTE MONOCYTE [2]: 203.17 CELLS/uL
ABSOLUTE SEGMENTED NEUTROPHIL [2]: 1327 CELLS/uL
BASOPHIL [2]: 0%
EOSINOPHIL [2]: 0.5%
ERYTHROCYTE COUNT [2]: 5.65 x10E6/uL
HEMATOCRIT [2]: 35.3%
HEMOGLOBIN [2]: 13.98 G/DL
LEUKOCYTE COUNT [2]: 13.02 x10E3/uL
LYMPHOCYTE [2]: 88%
MEAN CORPUSCULAR HEMOGLOBIN [2]: 24.78 pg
MEAN CORPUSCULAR HEMOGLOBIN CONCENTRATION [2]: 39.63 G/DL
MEAN CORPUSCULAR VOLUME [2]: 62.58 fL
MONOCYTE [2]: 1.33%
NEUTROPHIL [2]: 10.17%
NUCLEATED RED BLOOD CELLS [2]: 0 /100WBC
PLATELET COUNT [2]: 1213.83 x10E3/uL
ALANINE AMINOTRANSFERASE [2]: 49.67 u/L
ALBUMIN [2]: 4.28 G/DL
ALKALINE PHOSPHATASE [2]: 362.33 u/L
ASPARTATE AMINOTRANSFERASE [2]: 99 u/L
BLOOD UREA NITROGEN [2]: 20.67 mg/dL
CARBON DIOXIDE [2]: 26.33 mmol/L
CHLORIDE [2]: 102 MEQ/L
CHOLESTEROL [2]: 63.83 mg/dL
CREATINE PHOSPHOKINASE [2]: 481.83 u/L
CREATININE [2]: 0.21 mg/dL
GLUCOSE [2]: 158 mg/dL
LACTATE DEHYDROGENASE [2]: 656.33 u/L
LIPASE [2]: 10.67 u/L
PHOSPHORUS [2]: 12.27 mg/dL
POTASSIUM [2]: 6.17 MEQ/L
SODIUM [2]: 143.35 MEQ/L
TOTAL BILIRUBIN [2]: 0.17 mg/dL
TOTAL PROTEIN [2]: 6.13 G/DL
URIC ACID [2]: 1.48 mg/dL
ABSOLUTE BASOPHIL [3]: 0 CELLS/uL
ABSOLUTE EOSINOPHIL [3]: 0 CELLS/uL
ABSOLUTE LYMPHOCYTE [3]: 9045.33 CELLS/uL
ABSOLUTE MONOCYTE [3]: 160.67 CELLS/uL
ABSOLUTE SEGMENTED NEUTROPHIL [3]: 994 CELLS/uL
BASOPHIL [3]: 0%
EOSINOPHIL [3]: 0%
ERYTHROCYTE COUNT [3]: 5.13 x10E6/uL
HEMATOCRIT [3]: 32.57%
HEMOGLOBIN [3]: 13.4 G/DL
LEUKOCYTE COUNT [3]: 10.2 x10E3/uL
LYMPHOCYTE [3]: 88.33%
MEAN CORPUSCULAR HEMOGLOBIN [3]: 26.2 pg
MEAN CORPUSCULAR HEMOGLOBIN CONCENTRATION [3]: 41.17 G/DL
MEAN CORPUSCULAR VOLUME [3]: 63.67 fL
MONOCYTE [3]: 1.67%
NEUTROPHIL [3]: 10%
NUCLEATED RED BLOOD CELLS [3]: 0 /100WBC
PLATELET COUNT [3]: 720 x10E3/uL
ALANINE AMINOTRANSFERASE [3]: 53.67 u/L
ALBUMIN [3]: 4.27 G/DL
ALKALINE PHOSPHATASE [3]: 449.67 u/L
ASPARTATE AMINOTRANSFERASE [3]: 94.67 u/L
BLOOD UREA NITROGEN [3]: 17 mg/dL
CARBON DIOXIDE [3]: 30.33 mmol/L
CHLORIDE [3]: 103.67 MEQ/L
CHOLESTEROL [3]: 73.67 mg/dL
CREATINE PHOSPHOKINASE [3]: 447.67 u/L
CREATININE [3]: 0.2 mg/dL
GLUCOSE [3]: 149 mg/dL
LACTATE DEHYDROGENASE [3]: 345.33 u/L
LIPASE [3]: 8.67 u/L
PHOSPHORUS [3]: 13 mg/dL
POTASSIUM [3]: 6.04 MEQ/L
SODIUM [3]: 145.07 MEQ/L
TOTAL BILIRUBIN [3]: 0.13 mg/dL
TOTAL PROTEIN [3]: 5.87 G/DL
URIC ACID [3]: 1.33 mg/dL
ABSOLUTE BASOPHIL [4]: 0 CELLS/uL
ABSOLUTE EOSINOPHIL [4]: 124 CELLS/uL
ABSOLUTE LYMPHOCYTE [4]: 13794 CELLS/uL
ABSOLUTE MONOCYTE [4]: 49 CELLS/uL
ABSOLUTE SEGMENTED NEUTROPHIL [4]: 933 CELLS/uL
BASOPHIL [4]: 0%
EOSINOPHIL [4]: 0.67%
ERYTHROCYTE COUNT [4]: 5.42 x10E6/uL
HEMATOCRIT [4]: 34.03%
HEMOGLOBIN [4]: 13.53 G/DL
LEUKOCYTE COUNT [4]: 14.9 x10E3/uL
LYMPHOCYTE [4]: 92.33%
MEAN CORPUSCULAR HEMOGLOBIN [4]: 25 pg
MEAN CORPUSCULAR HEMOGLOBIN CONCENTRATION [4]: 39.77 G/DL
MEAN CORPUSCULAR VOLUME [4]: 62.87 fL
MONOCYTE [4]: 0.33%
NEUTROPHIL [4]: 6.67%
NUCLEATED RED BLOOD CELLS [4]: 0 /100WBC
PLATELET COUNT [4]: 1175.33 x10E3/uL
ALANINE AMINOTRANSFERASE [4]: 57.67 u/L
ALBUMIN [4]: 4.2 G/DL
ALKALINE PHOSPHATASE [4]: 396.67 u/L
ASPARTATE AMINOTRANSFERASE [4]: 87 u/L
BLOOD UREA NITROGEN [4]: 20 mg/dL
CARBON DIOXIDE [4]: 25 mmol/L
CHLORIDE [4]: 104 MEQ/L
CHOLESTEROL [4]: 56 mg/dL
CREATINE PHOSPHOKINASE [4]: 315 u/L
CREATININE [4]: 0.27 mg/dL
GLUCOSE [4]: 169.67 mg/dL
LACTATE DEHYDROGENASE [4]: 303.33 u/L
LIPASE [4]: 10.67 u/L
PHOSPHORUS [4]: 12.97 mg/dL
POTASSIUM [4]: 5.61 MEQ/L
SODIUM [4]: 144.73 MEQ/L
TOTAL BILIRUBIN [4]: 0.23 mg/dL
TOTAL PROTEIN [4]: 5.93 G/DL
URIC ACID [4]: 1.37 mg/dL
